Laboratory results reported in PMC12316777.
Like-named read-outs stand apart in the source and are kept apart here.

Assays:
SARS-CoV-2 nsp14 [1] = target: T1, SARS-CoV-2 nsp14 (Severe acute respiratory syndrome coronavirus 2, UniProt P0DTD1); type: biochemical; details: for IC50: read-out: IC50 (± SD) MTase; for Km: increasing molar equivalents of Au(I)
[2] = target: SARS-CoV-2 nsp14/nsp10 complex (Severe acute respiratory syndrome coronavirus 2, UniProt P0DTD1); assay: FRET-based exoribonuclease (ExoN) activity assay; type: biochemical; details: for IC50: nsp14/nsp10 pre-incubated with compound 1 h, n = 3, read-out: IC50 (± SD) ExoN
[3] = system: SARS-CoV-2 Omicron BA.5 in VeroE6-TMPRSS2 cells; assay: Plaque reduction assay; type: cell-based; details: VeroE6-TMPRSS2, n = 2, read-out: EC50, inhibition of SARS-CoV-2 virus replication
SARS-CoV-2 nsp14 [4] = target: T1, SARS-CoV-2 nsp14; assay: Metal displacement analysis (equilibrium dialysis, ICP-MS), nsp14; type: binding
Description: (§1) Since nsp14 and nsp10 have 3 and 2 zinc-finger motifs respectively, playing structural roles and as well as being important to the functions of nsp14/nsp10 complex. The soft nature of Au(I) makes it very likely to bind to the thiolates/nitrogen atoms in these cysteine/histidine-rich zinc-binding sites. To verify this, we then investigated the binding of Au(I) to the native nsp14 and nsp10 using equilibrium dialysis and determined the metal contents by inductively coupled plasma mass spectrometry (ICP-MS). […] Similarly, ca. 1.84 ± 0.66 mol equiv of Au(I) bound to per nsp10, accompanied by ca. 1.89 ± 0.28 mol equiv of Zn(II) release. […] In addition, since the ExoN activity of nsp14 is largely stimulated by nsp10, and nsp10 − nsp14 intermolecular interaction involves residues around the zinc finger of nsp10 [33, 34], we also examined the influence of Au(I) binding to nsp10 on the ExoN activity of nsp14.
(§2) Au(I) binding and Zn(II) release on nsp10 and nsp14 were determined by Inductively Coupled Plasma Mass Spectrometry (ICP-MS) on Agilent 7700 × ICP-MS (Agilent Technologies). […] Dialysis tubes loaded with 100 μL Zn-bound proteins (5 μM for nsp14 and nsp13 and 20 μM for nsp10) or protein buffer were placed into 50 mL dialysis buffer in the presence of different concentrations of Au(I) compounds (as Au(PEt3)Cl) with mild shaking at 18 °C overnight. The protein concentration was measured by bicinchoninic acid (BCA) assay, and the metal concentration of solution both inside and outside the dialysis tubes was determined by ICP-MS.

SARS-CoV-2 nsp14 [5] = target: T1, SARS-CoV-2 nsp14; assay: EMSA of nsp14 binding to dsRNA ExoN substrate; details: 4 µM nsp14, 0–40 µM drug, 200 nM dsRNA
Description: Next, we explored the inhibition mechanism of nsp14/nsp10 by Au(I). We first investigated the inhibition mode of Au(I) on the dual activities of nsp14, for which we selected Au(PEt3)Cl as a showcase. To explore the influence of Au(I) on the kinetics of the nsp14/nsp10 ExoN activity, a 20-nucleotide 5′-dU overhang conjugated to a Cy3/BHQ2 pair was used as an RNA duplex substrate. Then, the reciprocals of the reaction velocity and the concentration of the two substrates were used to plot the Lineweaver–Burk plot. And the Michaelis–Menten constant (Km) and the maximum reaction rate (Vmax) were calculated by nonlinear fitting to the Michaelis − Menten equation.
RNA-binding capability of nsp14 was determined by EMSA. […] For the bismuth(III) and Au(I) addition assays, nsp14 (4 µM) was pre-incubated with various concentrations of drugs (0, 1, 2, 4, 8, 20, 40 µM) in HEPES buffer for 2 h on ice before the RNA-binding assays before incubating with 200 nM of dsRNA at room temperature for 15 min. A 20 µL of the reaction mixture was then loaded onto 6% native-polyacrylamide gels and electrophoresed in 1xTBE buffer. Electrophoresis was carried out at 100 V for 50 min. Gels were subsequently stained by GelRed (Sigma Aldrich) for 5 min at room temperature and visualized through iBright™ CL750 Imaging System (Thermo Fisher Scientific).
ExoN substrates. Relative band intensities were quantified by ImageJ. […]

SARS-CoV-2 nsp14 [6] = target: T1, SARS-CoV-2 nsp14; assay: Size-exclusion chromatography of nsp14; details: 0−10 molar equivalents; monomer peak 9.6 mL decreases, peak at ca. 9.1 mL appears
SARS-CoV-2 nsp10 = SARS-CoV-2 nsp10 (Severe acute respiratory syndrome coronavirus 2, UniProt P0DTD1); assay: Metal displacement analysis (equilibrium dialysis, ICP-MS), nsp10; type: binding
Description: as §1, §2

SARS-CoV-2 nsp14 [7] = target: T1, SARS-CoV-2 nsp14; assay: Circular dichroism spectroscopy of nsp14 (BeStSel); details: CD deconvoluted by BeStSel; around 65% in untreated nsp14
nsp14 (ExoN/N7-MTase) = nsp14 (ExoN/N7-MTase) (SARS-CoV-2 isolate Wuhan-Hu-1, UniProt P0DTD1 5926-6452); assay: EMSA; no Au(I); 200 nM dsRNA, nsp14 0-8 uM; details: protein: recombinant; tags: N-terminal 6xHis, removed with thrombin; label: 5'-Cy3 on top strand; labels in EMSA not restated
[8] = nsp14 pre-incubated with compound 1 h, n = 3

Molecule: O=S(=O)([O-])[S-].O=S(=O)([O-])[S-].[Au+].[Na+].[Na+].[Na+] [Na3Au(S2O3)2, gold(I) sodium thiosulfate]
- IC50 (SARS-CoV-2 nsp14 [1]): 1.77 ± 0.01 µM
- IC50 [2]: 1710 ± 90 nM

Molecule: (1-(adamantan-1-yl)thiourea)-(triethylphosphine)-gold(I) [Au-amantadine]
- IC50 (SARS-CoV-2 nsp14 [1]; [8]): 8.16 ± 0.18 µM
- IC50 [2]: 1570 ± 120 nM

Molecule: [Cl][Au] [AuCl, gold(I) chloride]
- IC50 (SARS-CoV-2 nsp14 [1]; [8]): 0.91 ± 0.01 µM
- IC50 [2]: 5780 ± 310 nM

Molecule: [Cl][Au][PH]12CN3CN(CN(C3)C1)C2 [Urotropine-Au-Cl]
- ExoN enzyme activity remaining ([2]; 50 mol equiv of compound): 0.68%

Molecule: CC(=O)OC[C@H]1O[C@@H]([S-])[C@H](OC(C)=O)[C@@H](OC(C)=O)[C@@H]1OC(C)=O.CCP(CC)CC.[Au+] [auranofin]
- EC50 [3]: 730 ± 210 nM

Molecule: CCP(CC)CC.[Au+].[Cl-] [Au(PEt3)Cl, chloro(triethylphosphine)gold(I)]
- Au(I) bound per nsp14 (SARS-CoV-2 nsp14 [4]; equilibrium dialysis, ICP-MS): ca. 2.95 ± 0.23 mol equiv
- Zn(II) release from nsp14 (SARS-CoV-2 nsp14 [4]; equilibrium dialysis, ICP-MS): ca. 2.56 ± 0.21 mol equiv
- maximal binding capacity (Bmax), nsp14 (SARS-CoV-2 nsp14 [4]; fit to specific binding plot): 3.10 ± 0.32
- Kd (SARS-CoV-2 nsp14 [4]; fit to specific binding plot, read-out: dissociation constant (Kd), nsp14): 6.54 ± 0.33 µM
- effect on formation of the nsp14−RNA complex (SARS-CoV-2 nsp14 [5]): negligible effects
- Vmax, G(5′)ppp(5′)A RNA-dependent MTase kinetics (SARS-CoV-2 nsp14 [1]): 0.12 µM/min
- Vmax, SAM-dependent MTase kinetics (SARS-CoV-2 nsp14 [1]): 0.09 µM/min
- mode of inhibition of MTase activity (SARS-CoV-2 nsp14 [1]; SAM- and GpppA-RNA-dependent kinetics): noncompetitive
- Km (SARS-CoV-2 nsp14 [1]; read-out: Km, G(5′)ppp(5′)A RNA-dependent MTase kinetics): 1180 ± 20 nM
- Km (SARS-CoV-2 nsp14 [1]; read-out: Km, SAM-dependent MTase kinetics): 1620 ± 20 nM
- IC50 (SARS-CoV-2 nsp14 [1]; [8]): 4.5 ± 0.98 µM
- effect on quaternary structure of nsp14 (SARS-CoV-2 nsp14 [6]): partial oligomerization
- Au(I) bound per nsp10 (SARS-CoV-2 nsp10; equilibrium dialysis, ICP-MS): ca. 1.84 ± 0.66 mol equiv
- Zn(II) release from nsp10 (SARS-CoV-2 nsp10; equilibrium dialysis, ICP-MS): ca. 1.89 ± 0.28 mol equiv
- maximal binding capacity (Bmax), nsp10 (SARS-CoV-2 nsp10; fit to specific binding plot): 1.75 ± 0.60
- Kd (SARS-CoV-2 nsp10; fit to specific binding plot, read-out: dissociation constant (Kd), nsp10): 6.55 ± 0.77 µM
- helix content in nsp14 after treatment (SARS-CoV-2 nsp14 [7]): 36%
- mode of inhibition of ExoN activity ([2]; Lineweaver–Burk / Michaelis–Menten analysis): noncompetitive
- Vmax, ExoN kinetics ([2]; decreased from 2.7 with different molar equivalents of Au(I)): 0.5 nM/min
- IC50 [2]: 380 ± 40 nM

B1: ExoN substrate dsRNA (dsRNA)
RNA 1: GGUAGUAAUCCGCUC
RNA 2: UUUUUUUUUUUUUUUUUUUUGAGCGGAUUACUACUACC
- binding result (nsp14 (ExoN/N7-MTase)): binds
